Experimental data published in US12171768B2, “IRAK4 degraders and uses thereof” (priority 2021, dated 2024).

Test: Diastereomer interconversion
Format: physicochemical
Settings: in vitro and in vivo

SMILES	Diastereomer interconversion
Cn1c(=O)n([C@H]2CCC(=O)NC2=O)c2cccc(C#CCOC3CCN(C[C@H]4CC[C@H](n5cc(NC(=O)c6cnn7ccc(N8C[C@H]9C[C@@H]8CO9)nc67)c(C(F)F)n5)CC4)CC3)c21 [Compound B, 5-((1R,4R)-2-oxa-5-azabicyclo[2.2.1]heptan-5-yl)-N-(3-(difluoromethyl)-1-((1r,4R)-4-((4-((3-(1-((S)-2,6-dioxopiperidin-3-yl)-3-methyl-2-oxo-2,3-dihydro-1H-benzo[d]imidazol-4-yl)prop-2-yn-1-yl)oxy)piperidin-1-yl)methyl)cyclohexyl)-1H-pyrazol-4-yl)pyrazolo[1,5-a]pyrimidine-3-carboxamide]	interconvert rapidly
Cn1c(=O)n([C@@H]2CCC(=O)NC2=O)c2cccc(C#CCOC3CCN(C[C@H]4CC[C@H](n5cc(NC(=O)c6cnn7ccc(N8C[C@H]9C[C@@H]8CO9)nc67)c(C(F)F)n5)CC4)CC3)c21 [Compound C, 5-((1R,4R)-2-oxa-5-azabicyclo[2.2.1]heptan-5-yl)-N-(3-(difluoromethyl)-1-((1r,4R)-4-((4-((3-(1-((R)-2,6-dioxopiperidin-3-yl)-3-methyl-2-oxo-2,3-dihydro-1H-benzo[d]imidazol-4-yl)prop-2-yn-1-yl)oxy)piperidin-1-yl)methyl)cyclohexyl)-1H-pyrazol-4-yl)pyrazolo[1,5-a]pyrimidine-3-carboxamide]	interconvert rapidly
